# Data reported in US20220273703A1, “NRF2 ACTIVATION FOR TREATMENT OF NEPHROGENIC DIABETES INSIPIDUS” (University Of Pittsburgh-Of The Commonwealth System Of …, priority 2019, published 2022).
# Like-named read-outs stand apart in the source and are kept apart here.
# Key:
# Nrf2 [1] = experiment: CDDO-Me in the Li-NDI mouse model; type: in vivo, mice; details: 5 mg/kg I.P., q.d.
# Method: FIGS. 9A-9J. Pharmacologic activation of Nrf2 using CDDO-Me protects against polydipsia in Li-NDI via an AQP2-independent mechanism. (A) Schematic of model of Li-NDI. All mice received normal chow for 0-3d and were randomized to vehicle or CDDO-Me (5 mg/kg I.P., q.d.). At day 3, mice were randomized to either normal chow or 0.17% LiC1 diet. (B) Animal weights as a function of time, normalized to starting weight. (C) 24 hr food intake normalized to body weight. (D) Changes in water intake as a % of baseline expressed as mean±SE (n=6-8 per group). *(p<0.05) denotes statistical significance compared to LiC1-Vehicle by two-way ANOVA with Dunnet correction for multiple comparisons. (E) Immunoblotting of whole-kidney lysates for glycosylated ( ? , 45 kDa) and non-glycosylated ( ? , 29 kDa) AQP2 and NQO1; (F-H) Densitometry showing individual values, mean±SE with statistical analysis by one-way ANOVA with Tukey correction for multiple comparisons. (I) Plasma Li concentration. […]
# Water and Urine: Mice and food were weighed daily. Water was supplied in 50 mL conical with sipper tube as described (bio-protocol.org/e1822), and daily water intake was determined by weight. Spot urine was collected after spontaneous voiding on plastic wrap and urine osmolality measured in technical duplicate with Wescor 5500® Vapor Pressure Osmometer using lOuL urine and the average value reported each mouse. […]
# Nrf2 gene target NQO1 = experiment: NQO1 expression (immunoblotting) in primary human renal cortical cells; type: cell-based
# Method: Cell culture: Primary human distal tubule cells from human adult kidneys were isolated and cultured as previously described (Emlet et al., Am. J. Physiol.-Ren. Physiol. 312, (2017)). Confluent monolayers of cells were incubated with vehicle control, LiCl or CDDO-Im for 18 hr in serum-free hormonally defined media followed by preparation of lysates for immunoblotting.
# (§1) Immunoblotting: Flash-frozen kidneys were homogenized in ice-cold Radio Immuno Precipitation Assay (RIPA) buffer containing protease and phosphatase inhibitor cocktails. Cells were treated as indicated. At time of collection, cells were washed 2× with cold PBS and lysates were prepared in 4° C. lysis buffer containing protease inhibitors. Protein was quantified by bicinchoninic acid (BCA) assay (Pierce) and sample containing 15-25 μg total cellular protein was loaded on 4-12% reducing Bis-Tris gel. Resolved proteins were transferred to 0.45 μm nitrocellulose membrane, blocked with 5% non-fat dry milk or 5% bovine serum albumin in TRIS® buffered saline (TBS)-0.1% Tween 20 for 1 hr. Membranes were incubated with primary antibody (1:1000 dilution) for 1 hr at room temperature or overnight at 4° C. Appropriate secondary antibody was applied at dilution of 1:5000 for 1 hr, membrane washed thrice in TBS-0.1% Tween-20 and membrane visualized with Clarity ECL chemiluminescence kit and ChemiDoc imager (Bio-Rad, Hercules, Calif.).
# To establish a murine model of NDI, mice were administered control chow diet or 0.17% LiCl diet for 0-7 days (FIG. 1A) during which body weight, food intake (Suppl. FIG. 1) and water intake (FIG. 1B) were monitored. […]
# To further test the distribution of Nrf2 and sensitivity to activation in a translational model, NQO1 expression was determined in a cell culture model systems of primary human renal cortical cells representing proximal tubule (PT) and distal tubule (DT) cell populations (Emlet et al., Am. J. Physiol. - Ren. Physiol. 312, (2017)) in the presence or absence of the Nrf2 activator CDDO-Imidazolide (CDDO-Im) (FIG. 5C-F). […]
# Nrf2 [2] = experiment: 10-nitro-9(E)-octadec-9-enoic acid in nephrogenic diabetes insipidus; details: in vivo
# Text: The pharmacologic activation of Nrf2 with CDDO-Me provided motivation to evaluate the viability of 10-nitro-9(E)-octadec-9-enoic acid as an activator and potential API for treating or preventing NDI.
# [3] = Nrf2-/- mice
# [4] = Dietary Li administration in Keap1f/f mice (constitutive Nrf2 activation); type: in vivo
# Method: Water and Urine: Mice and food were weighed daily. Water was supplied in 50 mL conical with sipper tube as described (bio-protocol.org/e1822), and daily water intake was determined by weight. Spot urine was collected after spontaneous voiding on plastic wrap and urine osmolality measured in technical duplicate with Wescor 5500® Vapor Pressure Osmometer using lOuL urine and the average value reported each mouse.
# as §1
# Consequently, Li was administered to mice with constitutive pharmacomimetic Nrf2 activation (Keap1^f/f) to test whether Nrf2 and Li induced NDI via synergistic or additive mechanisms (FIG. 3A). To our surprise, instead of exacerbating the renal toxicity of Li, activation of Nrf2 signaling conferred significant protective effects.
# The duration of Li therapy in humans is on the order of months to decades. An experiment was done to evaluate if Nrf2 hyperactivation conferred long-term protection from the development of Li-NDI. 6-8 week old WT and Keap1^flox/flox mice were randomized to control or 0.17% LiCl diet for 8 months.
structure (smiles),measurement,setting,value
"COC(=O)[C@]12CCC(C)(C)C[C@H]1[C@H]1C(=O)C=C3[C@@]4(C)C=C(C#N)C(=O)C(C)(C)[C@@H]4CC[C@@]3(C)[C@]1(C)CC2 [CDDO-Me, Bardoxolone methyl]",food consumption,Nrf2 [1]; with LiCl diet,without impacting
same,increase of renal NQO1 expression,Nrf2 [1]; whole-kidney lysates,2- to 3 fold
"CC1(C)CC[C@]2(C(=O)n3ccnc3)CC[C@]3(C)[C@H](C(=O)C=C4[C@@]5(C)C=C(C#N)C(=O)C(C)(C)[C@@H]5CC[C@]43C)[C@@H]2C1 [CDDO-Im, CDDO-Imidazolide]",NQO1 expression,"Nrf2 gene target NQO1; CD-10/CD-13 positive HAK cells (proximal tubule), exposure to CDDO-Im",did not further increase
same,elevation in NQO1,"Nrf2 gene target NQO1; MUC1 positive cells (distal tubule), exposure to CDDO-Im",3 fold
CCCCCCCC/C(=C\CCCCCCCC(=O)O)[N+](=O)[O-] [10-nitro-9(E)-octadec-9-enoic acid],symptoms of nephrogenic diabetes insipidus,Nrf2 [2],reduced symptoms of nephrogenic diabetes insipidus
[Cl-].[Li+] [LiCl],NQO1 expression,"Nrf2 gene target NQO1; Li 10 mM and 50 mM, Mucin 1-enriched distal tubule cells and CD10/CD13 proximal tubule cells",No increase
same,body weight,[3]; Li diet 6 days,slightly reduced
same,Food intake,[3]; first 3 days of LiCl diet,modestly suppressed
same,urine osmolality,"[3]; spot urine, day 11",176+/−43 mOsm/kg
same,renal protein expression of Nrf2 gene target NQO1,"0.17% LiCl diet, 7 days",without impacting
same,Water intake,"0.17% LiCl diet, after 4 days",significantly increased
same,renal expression of AQP2,"0.17% LiCl diet, by 7 days",significantly downregulated
same,urine osmolality (hyposthenuria),"0.17% LiCl diet, day 7, spot urine",significant hyposthenuria
same,Expression of NQO1 in kidney,"Example 4, Li treatment",not affected
same,glycosylated and non-glycosylated AQP2 isoforms in kidney,"Example 4, both WT and Keap1f/f groups",significantly reduced
same,volume status when water intake clamped to baseline intake,"LiCl diet, baseline-clamped water",significant volume depletion with hypernatremia and polycythemia
same,renal expression of CA-II,WT animals,reduced
same,renal COX-1 expression,WT mice,down-regulate
same,renal COX-2 expression,WT mice,down-regulate
same,spot urine osmolality,"WT-Li cohort, day 13",359+/−192 mOsm/kg
same,reduction in body mass,"WT-Li mice, Example 4",~5%
same,plasma Li+,both WT and Keap1f/f groups on LiCl diet,equivalently elevated
same,total expression of NCC (tNCC),"kidney lysates, WT-Li cohort",unchanged
same,"Activating phosphorylation of NCC at threonine 53 (pNCC, T53)","kidney lysates, both genotypes",reduced
same,water intake (polydipsia),[4]; Keap1f/f mice receiving Li,normodipsic
same,body mass change vs control diet,[4]; Keap1f/f mice receiving LiCl,no change
same,urine osmolality,"[4]; Keap1f/f-Li cohort, day 13",758+/−703 mOsm/kg
same,average daily water intake compared to WT-Ctrl,"[4]; Keap1flox/flox-Li mice, 0.17% LiCl diet",no significant increase
same,total expression of NCC (tNCC),"[4]; kidney lysates, Keap1f/f-Li cohort",significantly reduced
